# Source: patent US11827917B1, “Methods for the conversion of fermentable sugars to ethanol” (Colorado State University Research Foundation, priority 2020, dated 2023)
# Marks after values point to notes of the source that are not given here.
# Tests used:
# Assay in all cases: Serum-bottle cultivation in YPD, different yeast strains
# Conditions in all cases: 0.2%
# S. cerevisiae JAY 241 = type: cell-based, Saccharomyces cerevisiae
# Protocol: (§1) Analytical methods: Cell growth was evaluated by monitoring OD600 and cell dry mass concentration. For dry mass measurements, 1.0 mL of culture was transferred to a pre-dried and pre-weighed 2-mL centrifuge tube. The tubes were centrifuged for 10 min at 14000 rpm using a microcentrifuge, and then the cell pellets were dried in an oven for 3 days at 65° C. The cell dry mass was determined by subtracting the initial tube mass from the dried mass of tube with cells. The concentrations of glucose, ethanol, and glycerol were measured via HPLC (Shimadzu LC20A series) outfitted with a refractive index detector and using an Aminex HPX-87H (300×7.8 mm) organic acid column and Cation H+ guard cartridge (Bio Rad Laboratories, Hercules, CA). The column was maintained at 65° C. and the mobile phase was 5 mM sulfuric acid with a flow rate of 0.6 mL/min. Standard compound solutions were used to calibrate the HPLC. Each sample was analyzed three times by HPLC.
# (§2) Procedure: Seven yeast strains (S. cerevisiae ATCC 26603, S. cerevisiae JAY 238, S. cerevisiae JAY 240, S. cerevisiae JAY 241, S. paradoxus JAY 1502, S. kudriavzezii JAY 1503, and S. mikatae JAY 1504) were pre-cultured in 30 mL of YPD medium in 100 mL serum bottle overnight in a shaker at 30° C. and 200 rpm. The precultured yeast cells of each strains were collected and washed twice. Finally, the cell pellet was resuspended in about 10 mL 0.8% (w/v) NaCl and the OD600 measured. TyrOH, PheOH, and TrpOH were added to 30 mL of YPD medium in 100-mL serum bottles at 0.2% (w/v) respectively. The same amount of DMSO was added in YPD medium and served as control to the TrpOH and TyrOH treatments. The prepared yeast cells were added to obtain the initial cell concentration at OD600=0.2. The serum bottles were sealed and cultured in a shaker at 30° C. and 200 rpm for 24 h. There were three biological replicates for each treatment.
# S. kudriavzezii JAY 1503 = type: cell-based
# Protocol: as §1, §2
# S. mikatae JAY 1504 = type: cell-based
# Protocol: as §1, §2
# S. paradoxus JAY 1502 = type: cell-based
# Protocol: as §1, §2
# [1] = S. cerevisiae JAY 241, YPD (Table 9B)
# [2] = S. kudriavzezii JAY 1503, YPD (Table 9B)
# [3] = S. mikatae JAY 1504, YPD (Table 9B)
# [4] = S. paradoxus JAY 1502, YPD (Table 9B)
smiles,measurement,setting,value
"OCCc1ccccc1 [PheOH, 2-phenylethanol]",OD600 Δ vs. ref,"S. cerevisiae JAY 241; S. cerevisiae JAY 241, YPD",69.9%
same,Biomass Yield,S. cerevisiae JAY 241; [1],0.042 + 0.001 g/g
same,Biomass yield Δ vs. ref,S. cerevisiae JAY 241; [1],−27.9%
same,Ethanol yield,S. cerevisiae JAY 241; [1],0.399 ± 0.003 g/g
same,Ethanol yield Δ vs. ref,S. cerevisiae JAY 241; [1],0.4%
same,Glycerol yield,S. cerevisiae JAY 241; [1],0.037 ± 0.002 g/g
same,Glycerol yield Δ vs. ref,S. cerevisiae JAY 241; [1],−31.00%
same,Biomass Yield,S. kudriavzezii JAY 1503; S. kudriavzezii JAY 1503,0.036 ± 0.001 g/g
same,Biomass yield % change vs. control,S. kudriavzezii JAY 1503; S. kudriavzezii JAY 1503,−19%
same,EtOH yield,S. kudriavzezii JAY 1503; S. kudriavzezii JAY 1503,0.399 ± 0.030 g/g
same,EtOH yield % change vs. control,S. kudriavzezii JAY 1503; S. kudriavzezii JAY 1503,+8.7%
same,Glycerol yield,S. kudriavzezii JAY 1503; S. kudriavzezii JAY 1503,0.060 ± 0.005 g/g
same,Glycerol yield % change vs. control,S. kudriavzezii JAY 1503; S. kudriavzezii JAY 1503,+19* %
same,DCW,"S. kudriavzezii JAY 1503; S. kudriavzezii JAY 1503, YPD",1.90 mg
same,DCW Δ vs. ref,"S. kudriavzezii JAY 1503; S. kudriavzezii JAY 1503, YPD",84.4%
same,OD600,"S. kudriavzezii JAY 1503; S. kudriavzezii JAY 1503, YPD",0.92
same,OD600 Δ vs. ref,"S. kudriavzezii JAY 1503; S. kudriavzezii JAY 1503, YPD",74.9%
same,Biomass Yield,S. kudriavzezii JAY 1503; [2],0.043 + 0.004 g/g
same,Biomass yield Δ vs. ref,S. kudriavzezii JAY 1503; [2],18.6%
same,Ethanol yield,S. kudriavzezii JAY 1503; [2],0.399 ± 0.030 g/g
same,Ethanol yield Δ vs. ref,S. kudriavzezii JAY 1503; [2],8.7%
same,Glycerol yield,S. kudriavzezii JAY 1503; [2],0.06 ± 0.005 g/g
same,Glycerol yield Δ vs. ref,S. kudriavzezii JAY 1503; [2],18.78%
same,Biomass Yield,S. mikatae JAY 1504; S. mikatae JAY 1504,0.053 ± 0.000 g/g
same,Biomass yield % change vs. control,S. mikatae JAY 1504; S. mikatae JAY 1504,−14%
same,EtOH yield,S. mikatae JAY 1504; S. mikatae JAY 1504,0.386 ± 0.009 g/g
same,EtOH yield % change vs. control,S. mikatae JAY 1504; S. mikatae JAY 1504,+3.6%
same,Glycerol yield,S. mikatae JAY 1504; S. mikatae JAY 1504,0.043 ± 0.007 g/g
same,Glycerol yield % change vs. control,S. mikatae JAY 1504; S. mikatae JAY 1504,+4.1%
same,DCW,"S. mikatae JAY 1504; S. mikatae JAY 1504, YPD",2.35 mg
same,DCW Δ vs. ref,"S. mikatae JAY 1504; S. mikatae JAY 1504, YPD",77.1%
same,OD600,"S. mikatae JAY 1504; S. mikatae JAY 1504, YPD",1.85
same,OD600 Δ vs. ref,"S. mikatae JAY 1504; S. mikatae JAY 1504, YPD",82.9%
same,Biomass Yield,S. mikatae JAY 1504; [3],0.053 + 0.000 g/g
same,Biomass yield Δ vs. ref,S. mikatae JAY 1504; [3],−13.8%
same,Ethanol yield,S. mikatae JAY 1504; [3],0.386 ± 0.009 g/g
same,Ethanol yield Δ vs. ref,S. mikatae JAY 1504; [3],3.6%
same,Glycerol yield,S. mikatae JAY 1504; [3],0.043 ± 0.007 g/g
same,Glycerol yield Δ vs. ref,S. mikatae JAY 1504; [3],4.09%
same,Biomass Yield,S. paradoxus JAY 1502; S. paradoxus JAY 1502,0.048 ± 0.001 g/g
same,Biomass yield % change vs. control,S. paradoxus JAY 1502; S. paradoxus JAY 1502,−30* %
same,EtOH yield,S. paradoxus JAY 1502; S. paradoxus JAY 1502,0.393 ± 0.000 g/g
same,EtOH yield % change vs. control,S. paradoxus JAY 1502; S. paradoxus JAY 1502,+2.7%
same,Glycerol yield,S. paradoxus JAY 1502; S. paradoxus JAY 1502,0.048 ± 0.002 g/g
same,Glycerol yield % change vs. control,S. paradoxus JAY 1502; S. paradoxus JAY 1502,+22* %
same,DCW,"S. paradoxus JAY 1502; S. paradoxus JAY 1502, YPD",1.95 mg
same,DCW Δ vs. ref,"S. paradoxus JAY 1502; S. paradoxus JAY 1502, YPD",78.0%
same,OD600,"S. paradoxus JAY 1502; S. paradoxus JAY 1502, YPD",1.64
same,OD600 Δ vs. ref,"S. paradoxus JAY 1502; S. paradoxus JAY 1502, YPD",70.0%
same,Biomass Yield,S. paradoxus JAY 1502; [4],0.048 + 0.001 g/g
same,Biomass yield Δ vs. ref,S. paradoxus JAY 1502; [4],−29.8%
same,Ethanol yield,S. paradoxus JAY 1502; [4],0.393 ± 0.000 g/g
same,Ethanol yield Δ vs. ref,S. paradoxus JAY 1502; [4],2.7%
same,Glycerol yield,S. paradoxus JAY 1502; [4],0.048 ± 0.002 g/g
same,Glycerol yield Δ vs. ref,S. paradoxus JAY 1502; [4],21.98%
